From the supplement of paper PMC10307832

Tests used:
Assay in all cases: relative viability (nuclei count vs DMSO), 5 days (fraction); higher = more cells survive
Sulindac + Lapatinib = compound: CC1=C(CC(=O)O)c2cc(F)ccc2/C1=C\c1ccc([S+](C)[O-])cc1 [Sulindac] + CS(=O)(=O)CCNCc1ccc(-c2ccc3ncnc(Nc4ccc(OCc5cccc(F)c5)c(Cl)c4)c3c2)o1 [Lapatinib] (partner 2 µM)
Outline: (§1)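 The day after seeding in 1536-well plates, lung cancer cell lines were treated by pin tool with a single drug, or with a fixed anchor-drug dose together with five library-drug doses (not always all listed) in √10 steps. After 5 days, a combined fix-and-stain solution (final 0.05% Triton X-100, 1% formaldehyde, 1 ug/ml Hoechst) was added. Nuclei counted on 4× images gave relative viability as treated counts over vehicle counts, reported as the median of duplicate plates.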

[1] = compound: CN[C@@H]1C[C@H]2O[C@@](C)([C@@H]1OC)n1c3ccccc3c3c4c(c5c6ccccc6n2c5c31)C(=O)NC4 [Staurosporine] + CC(=O)Nc1cccc(-n2c(=O)n(C3CC3)c(=O)c3c(Nc4ccc(I)cc4F)n(C)c(=O)c(C)c32)c1 [Trametinib] (partner 0.02 µM)
Outline: as §1

[2] = compound: CN[C@@H]1C[C@H]2O[C@@](C)([C@@H]1OC)n1c3ccccc3c3c4c(c5c6ccccc6n2c5c31)C(=O)NC4 [Staurosporine] + CS(=O)(=O)CCNCc1ccc(-c2ccc3ncnc(Nc4ccc(OCc5cccc(F)c5)c(Cl)c4)c3c2)o1 [Lapatinib] (partner 2 µM)
Outline: as §1

[3] = compound: CN[C@@H]1C[C@H]2O[C@@](C)([C@@H]1OC)n1c3ccccc3c3c4c(c5c6ccccc6n2c5c31)C(=O)NC4 [Staurosporine] + Cc1nc(Nc2ncc(C(=O)Nc3c(C)cccc3Cl)s2)cc(N2CCN(CCO)CC2)n1 [Dasatinib] (partner 0.075 µM)
Outline: as §1

| Cell Line | relative viability (Sulindac + Lapatinib; first compound 0.08 µM) | relative viability (Sulindac + Lapatinib; first compound 0.253 µM) | relative viability (Sulindac + Lapatinib; first compound 0.8 µM) | relative viability (Sulindac + Lapatinib; first compound 2.53 µM) | relative viability (Sulindac + Lapatinib; first compound 8 µM) | relative viability ([1]; first compound 0.005 µM) | relative viability ([1]; first compound 0.01581 µM) | relative viability ([1]; first compound 0.05 µM) | relative viability ([1]; first compound 0.1581 µM) | relative viability ([2]; first compound 0.005 µM) | relative viability ([2]; first compound 0.01581 µM) | relative viability ([2]; first compound 0.05 µM) | relative viability ([2]; first compound 0.1581 µM) | relative viability ([2]; first compound 0.5 µM) | relative viability ([3]; first compound 0.005 µM) | relative viability ([3]; first compound 0.01581 µM) | relative viability ([3]; first compound 0.05 µM) | relative viability ([3]; first compound 0.1581 µM) | relative viability ([3]; first compound 0.5 µM) | relative viability ([1]; first compound 0.5 µM) |
| --- | --- | --- | --- | --- | --- | --- | --- | --- | --- | --- | --- | --- | --- | --- | --- | --- | --- | --- | --- | --- |
| EMC-BAC-2 | 0.945 | 0.973 | 0.682 | 0.88 | 0.93 | 0.42 | 0.225 | 0.219 | 0.253 | 0.427 | 0.498 | 0.178 | 0.188 | 0.167 | 0.213 | 0.197 | 0.198 | 0.167 | 0.152 | – |
| NCI-H1355 | 1.16 | 1.05 | 0.881 | 0.956 | 1.13 | 0.279 | 0.255 | 0.232 | 0.22 | 0.96 | 0.557 | 0.272 | 0.188 | 0.193 | 0.516 | 0.166 | 0.202 | 0.164 | 0.152 | 0.147 |
| NCI-H2347 | 0.986 | 0.95 | 0.694 | 0.85 | 1.06 | 0.259 | 0.248 | 0.174 | 0.221 | 0.457 | 0.348 | 0.352 | 0.319 | 0.407 | 0.226 | 0.212 | 0.19 | 0.233 | 0.232 | 0.186 |
| NCI-H1651 | 1.07 | 0.836 | 0.736 | 0.829 | 1.09 | 0.871 | 0.785 | 0.569 | 0.509 | 0.708 | 0.413 | 0.356 | 0.107 | 0.0625 | 0.335 | 0.211 | 0.239 | 0.107 | 0.0833 | 0.346 |
| NCI-H1993 | 0.837 | 0.801 | 0.757 | 0.77 | 0.805 | 0.45 | 0.453 | 0.51 | 0.36 | 0.775 | 0.536 | 0.639 | 0.485 | 0.409 | 0.646 | 0.454 | 0.54 | 0.488 | 0.509 | 0.278 |
| COR-L23 | 1.58 | 1.16 | – | 0.976 | 1.12 | 0.325 | 0.148 | 0.0689 | 0.0665 | 0.695 | 0.31 | 0.241 | 0.0931 | 0.0662 | 0.309 | 0.186 | 0.17 | 0.112 | 0.0512 | 0.0391 |
| LOU-NH91 | 0.899 | 0.72 | 0.682 | 0.669 | 0.831 | 0.673 | 0.493 | 0.511 | 0.341 | 0.861 | 0.582 | 0.539 | 0.275 | 0.292 | 0.36 | 0.285 | 0.299 | 0.286 | 0.203 | 0.303 |
| NCI-H520 | 0.956 | 0.944 | 0.793 | 0.755 | 1.14 | 0.708 | 0.536 | 0.303 | 0.16 | 0.935 | 0.595 | 0.514 | 0.178 | 0.13 | 0.278 | 0.251 | 0.215 | 0.176 | 0.171 | 0.112 |
| NCI-H661 | 0.512 | 0.413 | 0.474 | 0.564 | 0.557 | 0.522 | 0.336 | 0.29 | 0.248 | 0.472 | 0.395 | 0.266 | 0.235 | 0.236 | 0.67 | 0.349 | 0.381 | 0.347 | 0.123 | 0.137 |
| NCI-H1975 | 1.27 | 1.03 | – | 0.952 | 1.01 | 0.18 | 0.141 | 0.139 | 0.121 | 0.572 | 0.232 | 0.227 | 0.13 | 0.0954 | 0.29 | 0.177 | 0.152 | 0.1 | 0.0812 | 0.1 |
| NCI-H1755 | 1.34 | 1.04 | 0.912 | 1.06 | 1.19 | 0.663 | 0.479 | 0.263 | 0.212 | 0.556 | 0.33 | 0.207 | 0.142 | 0.142 | 0.229 | 0.206 | 0.149 | – | 0.169 | 0.193 |
| NCI-H2009 | 1.02 | 0.949 | 0.87 | 0.946 | 1.05 | 0.204 | 0.143 | 0.149 | 0.087 | 0.249 | 0.152 | 0.251 | 0.125 | 0.0882 | 0.197 | 0.158 | 0.152 | 0.153 | 0.116 | 0.0761 |
| LK-2 | 1.05 | 0.835 | – | – | 1.15 | 0.906 | 0.781 | 0.701 | 0.669 | 1.31 | 0.924 | – | 0.346 | 0.178 | 0.551 | – | 0.271 | 0.139 | 0.121 | 0.333 |
| HCC-78 | 0.868 | 0.623 | 0.28 | 0.569 | 0.944 | 0.806 | 0.676 | 0.484 | 0.407 | 0.238 | 0.22 | 0.38 | 0.263 | 0.232 | 0.357 | 0.295 | 0.339 | 0.26 | 0.264 | 0.428 |
